{"source": "patent US20210253626A1", "about": "“PRODRUGS OF FULVESTRANT” (KASHIV BIOSCIENCES, LLC, priority 2018, published 2021)", "key": {"[1]": {"assay": "physchem", "details": "thermodynamic from solid", "method": "Solubility Test Procedure II:\n(§1) Stock solutions of the test compounds and fulvestrant were prepared in phosphate buffered saline (PBS) pH 7.4 and sodium acetate buffer pH 4.0, which was incubated for 24 h at room temperature with constant mixing at 100 rpm in the same tube. After incubation, the tubes were centrifuged for 20 min. at 10000 rpm. Later 200 μL of sample was taken and filtered. The filtrate was analysed by HPLC-UV against 0.0012 mg/ml, 0.037 mg/mL, 0.3 mg/ml, 0.1 mg/ml and 1 mg/ml of dimethylsulfoxide (DMSO) stock.\n(§2) Solubility (μg/ml)=[Peak area of sample/Peak area of standard]×Concentration of standard % Aqueous solubility: [Test solubility (μg/ml)/incubation concentration (μg/ml)]×100"}, "[2]": {"assay": "Kinetic solubility (Solubility Test Procedure I)", "details": "for Increase in solubility compare to fulvestrant (Fold): kinetic aqueous solubility at pH 7.4; for solubility at 4 h: phosphate buffer, 25 °C, pH 7.4, aqueous buffer, kinetic from dmso stock", "method": "Solubility Test Procedure I:\n(§3) A 50 mmol stock solution for each test compound was prepared using dimethyl sulfoxide. From this stock solution, a working solution of 1 mmol was prepared by diluting with dimethyl sulfoxide. The working solution of 1 mmol was then serially diluted using dimethyl sulfoxide. Then, 5-20 μl of stock solution is added to 1 ml of phosphate buffer solution of pH 7.4. The solution was then stirred for 4 h at 25° C. in order to reach equilibrium. After this incubation period, the solution was filtered using 0.45 micron PVDF injector filters to remove the insoluble fraction of the compound and subsequently filtrate is taken for quantification using UV Detector. The concentration of test sample was calculated using the linearity/calibration curve."}, "[3]": {"assay": "Thermodynamic solubility (Solubility Test Procedure II)", "details": "for solubility thermodynamic at 24 h: thermodynamic from solid", "method": "Solubility Test Procedure II:\nas §1, §2"}, "[4]": {"assay": "physchem", "details": "25 °C, pH 7.4, aqueous buffer, kinetic from dmso stock", "method": "Solubility Test Procedure I:\nas §3"}, "[5]": {"details": "4 h, pH 7.4", "method": "Solubility Test Procedure I:\nas §3"}, "[6]": {"details": "pH 4, aqueous buffer, Thermodynamic solubility (mg/mL) pH 4.0, sodium acetate buffer pH 4.0, 24 h room temperature, test compound concentration 1 mg/mL"}}, "note": "Where a name gives a salt, the structure may show the parent alone. Read-outs that look alike come from different tables or passages of the source."}
{"smiles": "CN1CCCN(C(=O)Oc2ccc3c(c2)C[C@@H](CCCCCCCCC[S+]([O-])CCCC(F)(F)C(F)(F)F)[C@@H]2[C@@H]3CC[C@]3(C)[C@@H](O)CC[C@@H]23)CC1", "note": "(stereo partly drawn) [Example 19, (7R,8R,9S,13S,14S,17S)-17-hydroxy-13-methyl-7-(9-((4,4,5,5,5-pentafluoropentyl)sulfinyl)nonyl)-7,8,9,11,12,13,14,15,16,17-decahydro-6H-cyclopenta[a]phenanthren-3-yl 4-methyl-1,4-diazepane-1-carboxylate]", "values": [{"measurement": "solubility thermodynamic at 24 h", "setting": "[1]; pH 4, aqueous buffer, Thermodynamic solubility (mg/mL) pH 4.0, sodium acetate buffer pH 4.0, 24 h room temperature, test compound concentration 2 mg/mL", "result": 1050, "unit": "µg/mL"}]}
{"smiles": "C[C@]12CC[C@@H]3c4ccc(OC(=O)N5CCC(N6CCCCC6)CC5)cc4C[C@@H](CCCCCCCCC[S+]([O-])CCCC(F)(F)C(F)(F)F)[C@H]3[C@@H]1CC[C@@H]2O", "note": "(stereo partly drawn) [Example 9, (7R,8R,9S,13S,14S,17S)-17-hydroxy-13-methyl-7-(9-((4,4,5,5,5-pentafluoropentyl)sulfinyl)nonyl)-7,8,9,11,12,13,14,15,16,17-decahydro-6H-cyclopenta[a]phenanthren-3-yl[1,4′-bipiperidine]-1′-carboxylate]", "values": [{"measurement": "solubility thermodynamic at 24 h", "setting": "[1]; [6]", "result": 700, "unit": "µg/mL"}, {"measurement": "Increase in solubility compare to fulvestrant (Fold)", "setting": "[2]", "result": 22, "unit": "Fold"}, {"measurement": "solubility at 4 h", "setting": "[2]", "result": 0.1, "unit": "µM"}]}
{"smiles": "C[C@]12CC[C@@H]3c4ccc(O)cc4C[C@@H](CCCCCCCCC[S+]([O-])CCCC(F)(F)C(F)(F)F)[C@H]3[C@@H]1CC[C@@H]2O", "note": "(some centres unmarked) [Fulvestrant]", "values": [{"measurement": "solubility thermodynamic at 24 h", "setting": "[3]; phosphate buffered saline (PBS), pH 7.4, aqueous buffer", "result": 1.2, "unit": "µg/mL"}, {"measurement": "solubility thermodynamic at 24 h", "setting": "[3]; sodium acetate buffer, pH 4, aqueous buffer", "result": 2.9, "unit": "µg/mL"}, {"measurement": "solubility at 4 h", "setting": "[2]", "result": 0.005, "unit": "µM"}]}
{"smiles": "C[C@]12CC[C@@H]3c4ccc(OP(=O)(O)O)cc4C[C@@H](CCCCCCCCC[S+]([O-])CCCC(F)(F)C(F)(F)F)[C@H]3[C@@H]1CC[C@@H]2O", "note": "(stereo partly drawn) [Example 21, (7R,8R,9S,13S,14S,17S)-17-hydroxy-13-methyl-7-(9-((4,4,5,5,5-pentafluoropentyl)sulfinyl)nonyl)-7,8,9,11,12,13,14,15,16,17-decahydro-6H-cyclopenta[a]phenanthren-3-yl dihydrogen phosphate disodium]", "values": [{"measurement": "solubility thermodynamic at 24 h", "setting": "[1]; pH 7.4, aqueous buffer, Thermodynamic solubility (mg/mL) pH 7.4, PBS pH 7.4, 24 h room temperature, test compound concentration 5 mg/mL", "result": "> 5000", "unit": "µg/mL"}]}
{"smiles": "CC(C)[C@H](NC(=O)Oc1ccc2c(c1)C[C@@H](CCCCCCCCC[S+]([O-])CCCC(F)(F)C(F)(F)F)[C@@H]1C2CC[C@]2(C)[C@@H](O)CC[C@@H]12)C(=O)O", "note": "(stereo partly drawn) [Example 45, (2S)-2-(((7R,8R,13S,14S,17S)-17-hydroxy-13-methyl-7-(9-(4,4,5,5,5-pentafluoropentylsulfinyl)nonyl)-7,8,9,11,12,13,14,15,16,17-decahydro-6H-cyclopenta[a]phenanthren-3-yloxy)carbonylamino)-3-methylbutanoic acid]", "values": [{"measurement": "solubility thermodynamic", "setting": "[1]; pH 7.4, aqueous buffer", "result": 1250, "unit": "µg/mL"}]}
{"smiles": "CN1CCC(CC(=O)Oc2ccc3c(c2)C[C@@H](CCCCCCCCC[S+]([O-])CCCC(F)(F)C(F)(F)F)[C@@H]2[C@@H]3CC[C@]3(C)[C@@H](O)CC[C@@H]23)CC1", "note": "(stereo partly drawn) [Example 15, (7R,8R,9S,13S,14S,17S)-17-hydroxy-13-methyl-7-(9-((4,4,5,5,5-pentafluoropentyl)sulfinyl)nonyl)-7,8,9,11,12,13,14,15,16,17-decahydro-6H-cyclopenta[a]phenanthren-3-yl 2-(1-methylpiperidin-4-yl)acetate]", "values": [{"measurement": "solubility thermodynamic at 24 h", "setting": "[1]; pH 4, aqueous buffer", "result": 630, "unit": "µg/mL"}]}
{"smiles": "C[C@]12CC[C@@H]3c4ccc(OC(=O)CN5CCCC5)cc4C[C@@H](CCCCCCCCC[S+]([O-])CCCC(F)(F)C(F)(F)F)[C@H]3[C@@H]1CC[C@@H]2O", "note": "(stereo partly drawn) [Example 8, (7R,8R,9S,13S,14S,17S)-17-hydroxy-13-methyl-7-(9-((4,4,5,5,5-pentafluoropentyl)sulfinyl)nonyl)-7,8,9,11,12,13,14,15,16,17-decahydro-6H-cyclopenta[a]phenanthren-3-yl 2-(pyrrolidin-1-yl)acetate]", "values": [{"measurement": "solubility at 4 h", "setting": "[4]", "result": 17.1, "unit": "µM"}, {"measurement": "Increase in solubility compare to fulvestrant (Fold)", "setting": "[5]", "result": 3500, "unit": "Fold"}]}
{"smiles": "CN1CCN(C(=O)Oc2ccc3c(c2)C[C@@H](CCCCCCCCC[S+]([O-])CCCC(F)(F)C(F)(F)F)[C@@H]2[C@@H]3CC[C@]3(C)[C@@H](O)CC[C@@H]23)CC1", "note": "(stereo partly drawn) [Example 4, (7R,8R,9S,13S,14S,17S)-17-hydroxy-13-methyl-7-(9-((4,4,5,5,5-pentafluoropentyl)sulfinyl)nonyl)-7,8,9,11,12,13,14,15,16,17-decahydro-6H-cyclopenta[a]phenanthren-3-yl 4-methylpiperazine-1-carboxylate]", "values": [{"measurement": "solubility thermodynamic at 24 h", "setting": "[1]; [6]", "result": 790, "unit": "µg/mL"}, {"measurement": "Increase in solubility compare to fulvestrant (Fold)", "setting": "[2]", "result": 97, "unit": "Fold"}, {"measurement": "solubility at 4 h", "setting": "[2]", "result": 0.5, "unit": "µM"}]}
{"smiles": "CN(C)CC(=O)Oc1ccc2c(c1)C[C@@H](CCCCCCCCC[S+]([O-])CCCC(F)(F)C(F)(F)F)[C@@H]1[C@@H]2CC[C@]2(C)[C@@H](O)CC[C@@H]12", "note": "(stereo partly drawn) [Example 1, (7R,8R,9S,13S,14S,17S)-17-hydroxy-13-methyl-7-(9-((4,4,5,5,5-pentafluoropentyl)sulfinyl)nonyl)-7,8,9,11,12,13,14,15,16,17-decahydro-6H-cyclopenta[a]phenanthren-3-yl dimethylglycinate]", "values": [{"measurement": "solubility at 4 h", "setting": "[4]", "result": 0.04, "unit": "µM"}, {"measurement": "Increase in solubility compare to fulvestrant (Fold)", "setting": "[5]", "result": 8, "unit": "Fold"}]}
{"smiles": "C[C@]12CC[C@@H]3c4ccc(OC(=O)c5ccccc5O)cc4C[C@@H](CCCCCCCCC[S+]([O-])CCCC(F)(F)C(F)(F)F)[C@H]3[C@@H]1CC[C@@H]2O", "note": "(stereo partly drawn) [Example 6, (7R,8R,9S,13S,14S,17S)-17-hydroxy-13-methyl-7-(9-((4,4,5,5,5-pentafluoropentyl)sulfinyl)nonyl)-7,8,9,11,12,13,14,15,16,17-decahydro-6H-cyclopenta[a]phenanthren-3-yl 2-hydroxybenzoate]", "values": [{"measurement": "Increase in solubility compare to fulvestrant (Fold)", "setting": "[2]", "result": 562, "unit": "Fold"}, {"measurement": "solubility at 4 h", "setting": "[2]", "result": 2.7, "unit": "µM"}]}
{"smiles": "C[C@]12CC[C@@H]3c4ccc(OC(=O)N5CCC(N6CCCCC6)CC5)cc4C[C@@H](CCCCCCCCC[S+]([O-])CCCC(F)(F)C(F)(F)F)[C@H]3[C@@H]1CC[C@@H]2O", "note": "(stereo partly drawn) [Example 29, (7R,8R,9S,13S,14S,17S)-17-hydroxy-13-methyl-7-(9-((4,4,5,5,5-pentafluoropentyl)sulfinyl)nonyl)-7,8,9,11,12,13,14,15,16,17-decahydro-6H-cyclopenta[a]phenanthren-3-yl [1,4′-bipiperidine]-1′-carboxylate hydrochloride]", "values": [{"measurement": "Thermodynamic solubility (mg/mL) pH 4.0", "setting": "[3]; sodium acetate buffer pH 4.0, 24 h room temperature, test compound concentration 1 mg/mL, hydrochloride", "result": 0.75, "unit": "mg/mL"}]}
{"smiles": "C[C@]12CC[C@@H]3c4ccc(OC(=O)CN5CCOCC5)cc4C[C@@H](CCCCCCCCC[S+]([O-])CCCC(F)(F)C(F)(F)F)[C@H]3[C@@H]1CC[C@@H]2O", "note": "(stereo partly drawn) [Example 10, (7R,8R,9S,13S,14S,17S)-17-hydroxy-13-methyl-7-(9-((4,4,5,5,5-pentafluoropentyl)sulfinyl)nonyl)-7,8,9,11,12,13,14,15,16,17-decahydro-6H-cyclopenta[a]phenanthren-3-yl 2-morpholinoacetate]", "values": [{"measurement": "solubility at 4 h", "setting": "[4]", "result": 0.2, "unit": "µM"}, {"measurement": "Increase in solubility compare to fulvestrant (Fold)", "setting": "[5]", "result": 32, "unit": "Fold"}]}
{"smiles": "C[C@]12CC[C@@H]3c4ccc(OP(=O)(O)O)cc4C[C@@H](CCCCCCCCC[S+]([O-])CCCC(F)(F)C(F)(F)F)[C@H]3[C@@H]1CC[C@@H]2O", "note": "(stereo partly drawn) [Example 20, (7R,8R,9S,13S,14S,17S)-17-hydroxy-13-methyl-7-(9-((4,4,5,5,5-pentafluoropentyl)sulfinyl)nonyl)-7,8,9,11,12,13,14,15,16,17-decahydro-6H-cyclopenta[a]phenanthren-3-yl dihydrogen phosphate]", "values": [{"measurement": "solubility thermodynamic", "setting": "[1]; pH 4, aqueous buffer", "result": 740, "unit": "µg/mL"}, {"measurement": "solubility thermodynamic", "setting": "[1]; pH 7.4, aqueous buffer", "result": 1220, "unit": "µg/mL"}]}
{"smiles": "CCOP(=O)(OCC)Oc1ccc2c(c1)C[C@@H](CCCCCCCCC[S+]([O-])CCCC(F)(F)C(F)(F)F)[C@@H]1[C@@H]2CC[C@]2(C)[C@@H](O)CC[C@@H]12", "note": "(stereo partly drawn) [Example 7, diethyl ((7R,8R,9S,13S,14S,17S)-17-hydroxy-13-methyl-7-(9-((4,4,5,5,5-pentafluoropentyl)sulfinyl)nonyl)-7,8,9,11,12,13,14,15,16,17-decahydro-6H-cyclopenta[a]phenanthren-3-yl) phosphate]", "values": [{"measurement": "Increase in solubility compare to fulvestrant (Fold)", "setting": "[2]", "result": 35, "unit": "Fold"}, {"measurement": "solubility at 4 h", "setting": "[2]", "result": 0.2, "unit": "µM"}]}
{"smiles": "C[C@]12CC[C@@H]3c4ccc(OC(=O)CN5CCCCC5)cc4C[C@@H](CCCCCCCCC[S+]([O-])CCCC(F)(F)C(F)(F)F)[C@H]3[C@@H]1CC[C@@H]2O", "note": "(stereo partly drawn) [Example 3, (7R,8R,9S,13S,14S,17S)-17-hydroxy-13-methyl-7-(9-((4,4,5,5,5-pentafluoropentyl)sulfinyl)nonyl)-7,8,9,11,12,13,14,15,16,17-decahydro-6H-cyclopenta[a]phenanthren-3-yl 2-(piperidin-1-yl)acetate hydrochloride]", "values": [{"measurement": "Increase in solubility compare to fulvestrant (Fold)", "setting": "[2]", "result": 669, "unit": "Fold"}, {"measurement": "solubility at 4 h", "setting": "[2]", "result": 3.3, "unit": "µM"}]}
{"smiles": "C[C@]12CCC3c4ccc(OCOP(=O)(O)O)cc4C[C@@H](CCCCCCCCC[S+]([O-])CCCC(F)(F)C(F)(F)F)[C@H]3[C@@H]1CC[C@@H]2O", "note": "(stereo partly drawn) [Example 44, ((7R,8R,13S,14S,17S)-17-hydroxy-13-methyl-7-(9-(4,4,5,5,5-pentafluoropentylsulfinyl)nonyl)-7,8,9,11,12,13,14,15,16,17-decahydro-6H-cyclopenta[a]phenanthren-3-yloxy)methyl dihydrogen phosphate]", "values": [{"measurement": "solubility thermodynamic at 24 h", "setting": "[1]; pH 4, aqueous buffer", "result": "> 1000", "unit": "µg/mL"}, {"measurement": "solubility thermodynamic at 24 h", "setting": "[1]; pH 7.4, aqueous buffer", "result": "> 15000", "unit": "µg/mL"}]}
{"smiles": "C[C@]12CC[C@@H]3c4ccc(OC(=O)CCC(=O)O)cc4C[C@@H](CCCCCCCCC[S+]([O-])CCCC(F)(F)C(F)(F)F)[C@H]3[C@@H]1CC[C@@H]2O", "note": "(stereo partly drawn) [Example 5, 4-(((7R,8R,9S,13S,14S,17S)-17-hydroxy-13-methyl-7-(9-((4,4,5,5,5-pentafluoropentyl)sulfinyl)nonyl)-7,8,9,11,12,13,14,15,16,17-decahydro-6H-cyclopenta[a]phenanthren-3-yl)oxy)-4-oxobutanoic acid]", "values": [{"measurement": "solubility at 4 h", "setting": "[4]", "result": 1.4, "unit": "µM"}, {"measurement": "Increase in solubility compare to fulvestrant (Fold)", "setting": "[5]", "result": 295, "unit": "Fold"}]}
